Among the test systems are TK-10 renal; PC-3 prostate; COLO 205 colon; UACC-257 melanoma; OVCAR-4 ovarian; SK-OV-3 ovarian; K-562 leukemia; SNB-19 CNS.
Experiment in all cases: inhibition of tumour cell growth, NCI panel, 48 h

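A five-concentration, 48-hour dose response in 96-well plates underlies each endpoint, interpolated linearly between surrounding concentrations. At the GI50, growth is halved. TGI marks complete inhibition of growth.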 Bounds are passed on as bounds.

As for `Cc1cccc(Oc2ccc(Nc3ncnc4ccc(NC(=O)CN(C)C)cc34)cc2Cl)c1`, the GI50 in the assay on TK-10 renal was 1.1 µM; with PC-3 prostate, 2.02 µM; in the assay with COLO 205 colon it was 1.71 µM; in the assay on UACC-257 melanoma, 1.71 µM; with OVCAR-4 ovarian, 1.7 µM; in the assay with SK-OV-3 ovarian, 0.828 µM. In addition, the GI50 with K-562 leukemia was 1.91 µM; in the assay on SNB-19 CNS it was 2.11 µM. In addition, the TGI in the assay with TK-10 renal is 3.57 µM; in the assay on PC-3 prostate, 6.32 µM; with COLO 205 colon, 3.48 µM; in the assay with UACC-257 melanoma, 3.3 µM; in the assay with OVCAR-4 ovarian, 5.59 µM; in the assay with SK-OV-3 ovarian, 7.24 µM. The values for the TGI in the assay with K-562 leukemia and in the assay with SNB-19 CNS were 4.63 µM and 6.35 µM, respectively.
In the case of `COc1ccc(-c2c(Nc3ccccn3)nc3c(C4=CCCCC4)c(-c4ccccc4)[nH]n3c2=O)cc1`, the GI50 is 4.82 µM in the assay on TK-10 renal; 2.17 µM with PC-3 prostate; 2.34 µM in the assay on COLO 205 colon; 5 µM in the assay on UACC-257 melanoma; 2.31 µM in the assay with OVCAR-4 ovarian; 3.44 µM in the assay on SK-OV-3 ovarian. Besides, the GI50 in the assay with SNB-19 CNS was 3.12 µM. Also, the TGI with TK-10 renal was 19.1 µM; in the assay with PC-3 prostate, over 100 µM; with COLO 205 colon, over 100 µM; in the assay on UACC-257 melanoma it was 66.3 µM; with OVCAR-4 ovarian, over 100 µM; with SK-OV-3 ovarian, 17.5 µM. This compound displayed a TGI in the assay with SNB-19 CNS of 17.2 µM.
As to `O=C1NC(=O)N(S(=O)(=O)c2cc(C(=O)Nc3ccc(Cl)cc3)c(Cl)cc2S)S(=O)(=O)N1`, the GI50 in the assay on TK-10 renal was 23.8 µM; in the assay with PC-3 prostate it was 17.8 µM; in the assay with COLO 205 colon, 11 µM; in the assay on UACC-257 melanoma, 17.5 µM; in the assay on OVCAR-4 ovarian it was 24.2 µM; with K-562 leukemia, 12.3 µM. The TGI was 45.5 µM in the assay on TK-10 renal; 52 µM in the assay with PC-3 prostate; over 100 µM in the assay on COLO 205 colon; 37.1 µM in the assay on UACC-257 melanoma; over 100 µM in the assay on OVCAR-4 ovarian; 34.1 µM in the assay on K-562 leukemia.
For the compound `NS(=O)(=O)c1cc2c(cc1Cl)NCNS2(=O)=O`, the TGI with TK-10 renal, with PC-3 prostate, with COLO 205 colon, with UACC-257 melanoma, in the assay with OVCAR-4 ovarian and in the assay with K-562 leukemia was over 100 µM in each case. In addition, in the assay with SNB-19 CNS, the TGI is over 100 µM.
`CCN1CCN(CC(=O)Nc2nc3ccc(NCc4ccc(Br)cc4)cc3s2)CC1`: the GI50 was 2.24 µM in the assay on TK-10 renal, 2.28 µM in the assay with UACC-257 melanoma, 3.19 µM with OVCAR-4 ovarian and 2.6 µM in the assay on SNB-19 CNS. Besides, the TGI turned out to be 4.55 µM in the assay on TK-10 renal, 5.14 µM with UACC-257 melanoma, 26.8 µM in the assay with OVCAR-4 ovarian and 6.93 µM with SNB-19 CNS.
For the compound `CNS(=O)(=O)NNS(=O)(=O)c1ccc(C)cc1`, the TGI in the assay on TK-10 renal, with COLO 205 colon, in the assay with UACC-257 melanoma, in the assay with OVCAR-4 ovarian, in the assay with SK-OV-3 ovarian and with K-562 leukemia was over 100 µM throughout. Besides, the TGI with SNB-19 CNS was over 100 µM.
With `O=C1Nc2ccc(Cl)cc2/C1=N/c1nc(-c2ccc(Cl)cc2)cs1`, the GI50 with TK-10 renal was 2.88 µM; with COLO 205 colon, 1.69 µM; in the assay on OVCAR-4 ovarian, 1.39 µM; in the assay with SK-OV-3 ovarian, 1.5 µM; with K-562 leukemia it was 1.6 µM. Also, the TGI is 6.13 µM in the assay with TK-10 renal; 4.18 µM in the assay with COLO 205 colon; over 100 µM with OVCAR-4 ovarian; 4.54 µM in the assay with SK-OV-3 ovarian; over 100 µM in the assay on K-562 leukemia.
For the compound `O=C(NO)c1ccc(CNc2cccc3nc(C4CC4)n(-c4ccccc4)c(=O)c23)cc1`, the GI50 was 1.73 µM in the assay with TK-10 renal; 2.22 µM in the assay with COLO 205 colon; 1.82 µM in the assay with UACC-257 melanoma; 2.28 µM in the assay with OVCAR-4 ovarian; 2.15 µM in the assay on SK-OV-3 ovarian; 2.89 µM in the assay with K-562 leukemia. In addition, the GI50 in the assay with SNB-19 CNS is 2.61 µM. Also, the TGI is 7 µM in the assay on TK-10 renal; 5.59 µM with COLO 205 colon; 4.76 µM in the assay on UACC-257 melanoma; 21.9 µM with OVCAR-4 ovarian; 5.4 µM with SK-OV-3 ovarian; over 100 µM in the assay on K-562 leukemia. Moreover, in the assay with SNB-19 CNS, the TGI is 9.68 µM.
Turning to `COc1cc2c(Oc3ccc(-c4cnc(Nc5ccc(F)cc5)n(C)c4=O)cc3F)ccnc2cc1OCCCN1CCOCC1`, the GI50 is 1.94 µM in the assay with TK-10 renal; 2.05 µM with PC-3 prostate; 1.1 µM in the assay on UACC-257 melanoma; 1.74 µM with OVCAR-4 ovarian; 1.84 µM in the assay with SK-OV-3 ovarian; 2.03 µM in the assay on SNB-19 CNS. The TGI turned out to be 3.92 µM with TK-10 renal; 6.39 µM in the assay on PC-3 prostate; 2.6 µM in the assay on UACC-257 melanoma; 7.49 µM in the assay with OVCAR-4 ovarian; 3.39 µM in the assay with SK-OV-3 ovarian; 4.52 µM with SNB-19 CNS.
`CNCc1cccc2c1OCCOCCOCCNS(=O)(=O)c1ccc(cc1)-c1cnc(N)c(n1)C(=O)N2`: the GI50 in the assay with TK-10 renal is 1.98 µM; in the assay with COLO 205 colon, 1.02 µM; with UACC-257 melanoma, 1.93 µM; in the assay on OVCAR-4 ovarian, 1.5 µM; with SK-OV-3 ovarian it was 0.543 µM; in the assay on K-562 leukemia, 1.26 µM. In addition, the GI50 in the assay on SNB-19 CNS was 2.45 µM. Moreover, the TGI in the assay with TK-10 renal was found to be 8.49 µM; in the assay with COLO 205 colon, 2.44 µM; in the assay with UACC-257 melanoma it was 4.68 µM; in the assay with OVCAR-4 ovarian, 6.42 µM; with SK-OV-3 ovarian it was 8.01 µM; in the assay with K-562 leukemia, 5.46 µM. Also, in the assay with SNB-19 CNS, the TGI is 9.9 µM.
Consider `O=C(O)c1cn(C2CC2)c2cc(N3CCN(C(=O)N(c4ccccc4)c4nc(-c5ccccc5)cs4)CC3)c(F)cc2c1=O`, for which the results for the GI50 in the assay with TK-10 renal, in the assay on OVCAR-4 ovarian and in the assay with SNB-19 CNS were 1.09 µM, 0.526 µM and 0.416 µM, respectively. Also, the TGI in the assay with TK-10 renal is 32.6 µM; in the assay with OVCAR-4 ovarian, over 100 µM; in the assay with SNB-19 CNS, over 100 µM.

(Values after PubChem BioAssay (NCI).)
